Drawing on patent publication US7683171B2, “1H-imidazo[4,5-d]thieno[3,2-b]pyridine based tricyclic compounds and pharmaceutical compositions comprising same” (Bristol-Myers Squibb Company, priority 2005, dated 2010), this text covers Ames testing for 1 molecule.

The data set concerns T98. Kind of data set: Ames testing. The class given is cell-based. As to conditions: T98 with S9 activation.

As to `Cl.Cn1cnc2c(N)nc3cc(-c4cccc(F)c4)sc3c21` [Example A5, 7-(3-Fluorophenyl)-1-methyl-1H-imidazo[4,5-d]thieno[3,2-b]pyridin-4-amine hydrochloride salt], the Ames testing result was “positive”.
